{"source": "patent US20200231685A1", "about": "“CONJUGATES FOR TREATING INFLAMMATORY DISEASE AND IDENTIFICATION OF PATIENTS LIKELY TO BENEFIT FROM SUCH TREATMENT” (The University of Bristol, priority 2013, published 2020)", "key": {"Th0 (CCR6-) cells": {"tested_on": "Th0 (CCR6-) cells", "experiment": "Intracellular IFNγ expression by flow cytometry in human Th0 cultures", "type": "cell-based", "details": "24 hrs incubation", "source_text": "(§1) FIGS. 23A-23B show suppression of IL-17A in human Th17 (CCR6+) cells and IFNγ cytokine production in human Th0 (CCR6^−) and Th17 cells. CCR6 positive and CCR6 negative CD4^+ T cells were purified and cultured in the presence of polarising cytokines for two weeks. […] Intracellular cytokines were quantified by flow cytometry (FIG. 23A) and percentage suppression calculated in relation to an untreated control (FIG. 23B). Data represents the mean expression of three to four normal volunteers, with error expressed as standard deviation.\nCell Cultures. Murine Naive T cells were obtained from lymph nodes and spleens of OT-II/3A9 mice using CD4 positive selection kits following the manufacturer's instructions (Miltenyi Biotech). Splenocytes from respective wild-type mice were irradiated and mixed with the CD4^+ T cells at a 1:10 ratio. […] All cells were kept in a 37° C., 5% CO2 humidified incubator. Cells were used after two rounds of activation. […]"}, "Th17 (CCR6+) cells": {"tested_on": "Th17 (CCR6+) cells", "experiment": "Intracellular IL-17 / IFN-γ expression by flow cytometry in human Th17 cultures", "type": "cell-based", "source_text": "Absolute expression was plotted on a log2 scale colour coded from low to high expression. […] All data are represented as mean±SEM.\nas §1, with “CCR6” for “FIGS. 23A-23B show suppression of IL-17A in human Th17 (CCR6+) cells and IFNγ cytokine production in human Th0 (CCR6^−) and Th17 cells. CCR6”\nTherefore, to determine whether in vitro, human CD4+Th17 T cells were responsive to glucocorticoids, we generated an IL-17 secreting CD4+ T cell subset using the innate expression of CCR6. […] As a result of glucocorticoid binding the glucocorticoid receptor (GR), the GR translocates to the nucleus and binds to glucocorticoid-response elements within the DNA. […] We then compared the translocation of the GR in Th17 and Th0 cells.\nCell Cultures. Murine Naive T cells were obtained from lymph nodes and spleens of OT-II/3A9 mice using CD4 positive selection kits following the manufacturer's instructions (Miltenyi Biotech). Splenocytes from respective wild-type mice were irradiated and mixed with the CD4^+ T cells at a 1:10 ratio. […] All cells were kept in a 37° C., 5% CO2 humidified incubator. Cells were used after two rounds of activation. Human peripheral CD4^+CCR6^− (Th0) and CD4^+CCR6^+ (Th17) cells were FACS sorted, resuspended to 2×10^6cells/ml in complete RPMI-1640 (Invitrogen) supplemented with 10% FCS, L-glutamine and Penicillin/streptomycin (all PAA Laboratories Ltd, UK), stimulated with plate-bound 5 μg/ml anti-CD3 and 5 μg/ml anti-CD28 antibodies (eBioscience, US) (Th0) or with plate-bound antibodies and a polarizing cytokine cocktail of 20 ng/ml IL-6, 10 ng/ml IL-23, 10 ng/ml IL-1β (R&D Systems, US), 100 ng/ml anti-IFN-γ, 100 ng/ml anti-IL-4 (eBioscience, US) (Th17) for 3 days. […]"}, "CD4+ T cells": {"tested_on": "CD4+ T cells", "experiment": "Inhibition of isolated CD4+ T cell proliferation (tritiated thymidine incorporation)", "type": "cell-based, human", "procedure": "Proliferation was measured by tritiated thymidine incorporation (ccpm). Data represents the mean of two normal volunteers, with error expressed as standard deviation.\nT Cell Proliferation Assays. T cell proliferation was measured by pulsing with 18.5 kBq [^3H] thymidine (GE Healthcare, US) per well for the final 12 hours of cultures and determining thymidine uptake in counts per minute (c.p.m)."}, "[1]": {"tested_on": "Experimental Autoimmune Uveitis (EAU)", "type": "in vivo, mouse", "details": "Day 18; PMA and ionomycin 4 hours"}}}
{"smiles": "C=CC[C@@H]1/C=C(\\C)C[C@H](C)C[C@H](OC)[C@H]2O[C@@](O)(C(=O)C(=O)N3CCCC[C@H]3C(=O)O[C@H](/C(C)=C/[C@@H]3CC[C@@H](O)[C@H](OC)C3)[C@H](C)[C@@H](O)CC1=O)[C@H](C)C[C@@H]2OC", "note": "[tacrolimus]", "values": [{"measurement": "suppression of IFNγ production in Th0 (CCR6-) cells", "setting": "Th0 (CCR6-) cells", "result": "equally suppress"}, {"measurement": "suppression of IFNγ production in Th17 cells", "setting": "Th17 (CCR6+) cells; 24 hrs incubation", "result": "equally suppress"}, {"measurement": "suppression of IL-17A production in Th17 (CCR6+) cells", "setting": "Th17 (CCR6+) cells; 24 hrs incubation", "result": "equally suppress"}, {"measurement": "dose required for cytokine suppression, less than cyclosporine A", "setting": "Th17 (CCR6+) cells; IL-17 in Th17, IFNγ in Th17 and Th0 cells", "result": 20, "unit": "×"}, {"measurement": "concentration for full inhibition of CD4+ cell proliferation, lower compared with cyclosporine A", "setting": "CD4+ T cells", "result": 20, "unit": "fold"}, {"measurement": "dose achieving the same inhibition of CD4+ T cell proliferation", "setting": "CD4+ T cells", "result": 10, "unit": "ng/mL"}]}
{"smiles": "C[C@@H]1C[C@H]2[C@@H]3CCC4=CC(=O)C=C[C@]4(C)[C@@]3(F)[C@@H](O)C[C@]2(C)[C@@]1(O)C(=O)CO", "note": "[Dex, dexamethasone]", "values": [{"measurement": "suppression of IFN-γ expression in eye infiltrating CD4+ cells", "setting": "[1]", "result": 45, "unit": "%"}]}
